Residues, ends and D or L forms follow the SMILES beside them.
Columns and labels:
Orexin receptor type 2 = molecular target: T1, Orexin receptor type 2 (Homo sapiens, UniProt O43614); experiment: Effective agonist concentration to the human Orexin receptor type 2 was determined using the Xlfit program; type: functional
T1 sequence (O43614 whole entry): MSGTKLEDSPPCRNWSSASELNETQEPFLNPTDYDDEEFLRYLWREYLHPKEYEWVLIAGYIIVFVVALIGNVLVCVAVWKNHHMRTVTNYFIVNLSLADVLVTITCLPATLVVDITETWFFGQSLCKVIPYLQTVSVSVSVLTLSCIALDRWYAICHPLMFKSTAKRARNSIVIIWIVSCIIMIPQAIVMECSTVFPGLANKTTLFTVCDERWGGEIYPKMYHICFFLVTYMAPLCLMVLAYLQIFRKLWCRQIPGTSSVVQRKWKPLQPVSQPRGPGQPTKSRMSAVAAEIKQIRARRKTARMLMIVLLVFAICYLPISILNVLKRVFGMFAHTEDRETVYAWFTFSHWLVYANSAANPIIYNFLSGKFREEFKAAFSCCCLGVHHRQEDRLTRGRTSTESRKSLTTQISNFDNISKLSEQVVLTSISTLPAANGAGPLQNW

[1] = molecular target: T2, Orexin/Hypocretin receptor type 1 (Homo sapiens, UniProt O43613); experiment: Effective agonist concentration to human orexin receptor type 1 determined using the Xlfit program; type: functional
T2 sequence (O43613 whole entry): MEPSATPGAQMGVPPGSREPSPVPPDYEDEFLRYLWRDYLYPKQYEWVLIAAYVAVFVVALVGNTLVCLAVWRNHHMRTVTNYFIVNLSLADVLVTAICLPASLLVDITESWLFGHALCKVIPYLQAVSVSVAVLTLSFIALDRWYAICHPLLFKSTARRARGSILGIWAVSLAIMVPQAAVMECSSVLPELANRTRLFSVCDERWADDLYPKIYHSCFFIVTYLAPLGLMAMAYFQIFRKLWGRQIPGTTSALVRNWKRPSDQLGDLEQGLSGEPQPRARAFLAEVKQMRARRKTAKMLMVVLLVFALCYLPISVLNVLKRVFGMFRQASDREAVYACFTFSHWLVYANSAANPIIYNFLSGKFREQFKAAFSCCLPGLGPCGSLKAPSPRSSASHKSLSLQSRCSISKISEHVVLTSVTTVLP

[2] = Ratio of orexin-1 receptor to orexin-2 receptor in human

CC[C@H](C)[C@H](NC(=O)CNC(=O)[C@H](C)NC(=O)[C@H](C)NC(=O)[C@H](Cc1c[nH]cn1)NC(=O)[C@H](CC(N)=O)NC(=O)CNC(=O)[C@H](C)NC(=O)CNC(=O)[C@H](Cc1c[nH]cn1)NC(=O)[C@H](CC(C)C)NC(=O)[C@H](CC(C)C)NC(=O)[C@H](CCC(=O)O)NC(=O)[C@H](Cc1ccc(O)cc1)NC(=O)[C@H](CC(C)C)NC(=O)[C@H](CCCN=C(N)N)NC(=O)[C@H](CS)NC(=O)[C@H](CO)NC(=O)[C@H](CS)NC(=O)[C@@H](NC(=O)[C@H](CCCCN)NC(=O)[C@H](CCC(N)=O)NC(=O)[C@H](CCCN=C(N)N)NC(=O)[C@H](CS)NC(=O)[C@H](CS)NC(=O)[C@H](CC(=O)O)NC(=O)[C@@H]1CCCN1C(=O)[C@H](CC(C)C)NC(=O)[C@@H]1CCCN1)[C@@H](C)O)C(=O)N[C@@H](CC(C)C)C(=O)N[C@H](C(=O)N[C@@H](CC(C)C)C(=O)O)[C@@H](C)O
EC50 (Orexin receptor type 2): 2.51 µM | EC50 [1]: 0.86 µM | Ratio [2]: 0.3

CC[C@H](C)[C@H](NC(=O)CNC(=O)[C@H](C)NC(=O)[C@H](C)NC(=O)[C@H](Cc1c[nH]cn1)NC(=O)[C@H](CC(N)=O)NC(=O)CNC(=O)[C@H](CO)NC(=O)[C@H](C)NC(=O)[C@H](CCC(N)=O)NC(=O)[C@H](CC(C)C)NC(=O)[C@H](C)NC(=O)[C@H](CCCN=C(N)N)NC(=O)[C@H](CCC(N)=O)NC(=O)[C@H](CC(C)C)NC(=O)[C@H](CCCN=C(N)N)NC(=O)CNC(=O)[C@H](CCC(N)=O)NC(=O)[C@H](CC(C)C)NC(=O)CN)C(=O)N[C@@H](CC(C)C)C(=O)N[C@H](C(=O)N[C@@H](CCSC)C(=O)O)[C@@H](C)O (H-GLQGRLQRALQASGNHAAGILTM-OH)
EC50 (Orexin receptor type 2): 2.28 µM | EC50 [1]: 5.89 µM | Ratio [2]: 2.6

CC[C@H](C)[C@H](NC(=O)CNC(=O)[C@H](C)NC(=O)[C@H](C)NC(=O)[C@H](Cc1c[nH]cn1)NC(=O)[C@H](CC(N)=O)NC(=O)CNC(=O)[C@H](CO)NC(=O)[C@H](C)NC(=O)[C@@H]1CCCN1C(=O)[C@H](CC(C)C)NC(=O)[C@H](CC(C)C)NC(=O)[C@H](CCCN=C(N)N)NC(=O)[C@H](CCC(N)=O)NC(=O)[C@H](CC(C)C)NC(=O)[C@H](CCCN=C(N)N)NC(=O)CNC(=O)[C@H](CCC(N)=O)NC(=O)[C@H](CC(C)C)NC(=O)CN)C(=O)N[C@@H](CC(C)C)C(=O)N[C@H](C(=O)N[C@@H](CCSC)C(=O)O)[C@@H](C)O (H-GLQGRLQRLLPASGNHAAGILTM-OH)
EC50 (Orexin receptor type 2): 2.48 µM | EC50 [1]: 9.49 µM | Ratio [2]: 3.8

CC[C@H](C)[C@H](NC(=O)CNC(=O)[C@H](C)NC(=O)[C@H](C)NC(=O)[C@H](Cc1c[nH]cn1)NC(=O)[C@H](CC(N)=O)NC(=O)CNC(=O)[C@H](CO)NC(=O)[C@H](C)NC(=O)[C@H](CCC(N)=O)NC(=O)[C@H](CC(C)C)NC(=O)[C@H](CC(C)C)NC(=O)[C@H](CCCN=C(N)N)NC(=O)[C@H](CCC(N)=O)NC(=O)[C@H](CC(C)C)NC(=O)[C@H](CCCN=C(N)N)NC(=O)CNC(=O)[C@H](CCC(N)=O)NC(=O)[C@H](CC(C)C)NC(=O)CN)C(=O)N[C@@H](CC(C)C)C(=O)N[C@@H](C)C(=O)N[C@@H](CCSC)C(=O)O (H-GLQGRLQRLLQASGNHAAGILAM-OH)
EC50 (Orexin receptor type 2): 0.76 µM | EC50 [1]: > 1000 µM | Ratio [2]: > 1350

CC[C@H](C)[C@H](NC(=O)CNC(=O)[C@H](C)NC(=O)[C@H](C)NC(=O)[C@H](Cc1c[nH]cn1)NC(=O)[C@H](CC(N)=O)NC(=O)CNC(=O)[C@H](CO)NC(=O)[C@H](C)NC(=O)[C@H](CCC(N)=O)NC(=O)[C@H](CC(C)C)NC(=O)[C@H](CC(C)C)NC(=O)[C@H](CCCN=C(N)N)NC(=O)[C@H](CCC(N)=O)NC(=O)[C@H](CC(C)C)NC(=O)[C@H](CCCN=C(N)N)NC(=O)CNC(=O)[C@H](CCC(N)=O)NC(=O)[C@H](CC(C)C)NC(=O)CN)C(=O)N[C@@H](CC(C)C)C(=O)N[C@H](C(=O)N[C@@H](C)C(=O)O)[C@@H](C)O (H-GLQGRLQRLLQASGNHAAGILTA-OH)
EC50 (Orexin receptor type 2): 0.75 µM | EC50 [1]: 4.84 µM | Ratio [2]: 6.5

CC[C@H](C)[C@H](NC(=O)CNC(=O)[C@H](C)NC(=O)[C@H](C)NC(=O)[C@H](Cc1c[nH]cn1)NC(=O)[C@H](CC(N)=O)NC(=O)CNC(=O)[C@H](CO)NC(=O)[C@H](C)NC(=O)[C@H](CCC(N)=O)NC(=O)[C@H](CC(C)C)NC(=O)[C@H](CC(C)C)NC(=O)[C@H](CCCN=C(N)N)NC(=O)[C@H](CCC(N)=O)NC(=O)[C@H](CC(C)C)NC(=O)[C@H](CCCN=C(N)N)NC(=O)CNC(=O)[C@H](CCC(N)=O)NC(=O)[C@H](CC(C)C)NC(=O)CN)C(=O)N[C@@H](CC(C)C)C(=O)N[C@H](C(=O)N1CCC[C@H]1C(=O)O)[C@@H](C)O (H-GLQGRLQRLLQASGNHAAGILTP-OH)
EC50 (Orexin receptor type 2): 3.63 µM | EC50 [1]: > 1000 µM | Ratio [2]: > 275

CC[C@H](C)[C@H](NC(=O)CNC(=O)[C@H](C)NC(=O)[C@H](C)NC(=O)[C@H](Cc1c[nH]cn1)NC(=O)[C@H](CC(N)=O)NC(=O)CNC(=O)[C@H](CO)NC(=O)[C@H](C)NC(=O)[C@H](CCC(N)=O)NC(=O)[C@H](CC(C)C)NC(=O)[C@H](CC(C)C)NC(=O)[C@H](CCCN=C(N)N)NC(=O)[C@H](CCC(N)=O)NC(=O)[C@H](CC(C)C)NC(=O)[C@H](CCCN=C(N)N)NC(=O)CNC(=O)[C@H](CCC(N)=O)NC(=O)[C@H](CC(C)C)NC(=O)CN)C(=O)N1CCC[C@H]1C(=O)N[C@H](C(=O)N[C@@H](CCSC)C(=O)O)[C@@H](C)O (H-GLQGRLQRLLQASGNHAAGIPTM-OH)
EC50 (Orexin receptor type 2): 0.63 µM | EC50 [1]: 8.77 µM | Ratio [2]: 13.9

CC[C@H](C)[C@H](NC(=O)[C@@H]1CCCN1C(=O)[C@H](C)NC(=O)[C@H](C)NC(=O)[C@H](Cc1c[nH]cn1)NC(=O)[C@H](CC(N)=O)NC(=O)CNC(=O)[C@H](CO)NC(=O)[C@H](C)NC(=O)[C@H](CCC(N)=O)NC(=O)[C@H](CC(C)C)NC(=O)[C@H](CC(C)C)NC(=O)[C@H](CCCN=C(N)N)NC(=O)[C@H](CCC(N)=O)NC(=O)[C@H](CC(C)C)NC(=O)[C@H](CCCN=C(N)N)NC(=O)CNC(=O)[C@H](CCC(N)=O)NC(=O)[C@H](CC(C)C)NC(=O)CN)C(=O)N[C@@H](CC(C)C)C(=O)N[C@H](C(=O)N[C@@H](CCSC)C(=O)O)[C@@H](C)O (H-GLQGRLQRLLQASGNHAAPILTM-OH)
EC50 (Orexin receptor type 2): 9.43 µM | EC50 [1]: > 1000 µM | Ratio [2]: > 105

CC[C@H](C)[C@H](NC(=O)CNC(=O)[C@H](C)NC(=O)[C@H](C)NC(=O)[C@H](Cc1c[nH]cn1)NC(=O)[C@H](CC(N)=O)NC(=O)CNC(=O)[C@H](CO)NC(=O)[C@H](C)NC(=O)[C@H](CCC(N)=O)NC(=O)[C@@H]1CCCN1C(=O)[C@H](CC(C)C)NC(=O)[C@H](CCCN=C(N)N)NC(=O)[C@H](CCC(N)=O)NC(=O)[C@H](CC(C)C)NC(=O)[C@H](CCCN=C(N)N)NC(=O)CNC(=O)[C@H](CCC(N)=O)NC(=O)[C@H](CC(C)C)NC(=O)CN)C(=O)N[C@@H](CC(C)C)C(=O)N[C@H](C(=O)N[C@@H](CCSC)C(=O)O)[C@@H](C)O (H-GLQGRLQRLPQASGNHAAGILTM-OH)
EC50 (Orexin receptor type 2): 20.1 µM | EC50 [1]: > 1000 µM | Ratio [2]: > 50

CC[C@H](C)[C@H](NC(=O)CNC(=O)[C@H](C)NC(=O)[C@H](C)NC(=O)[C@H](Cc1c[nH]cn1)NC(=O)[C@H](CC(N)=O)NC(=O)CNC(=O)[C@H](CO)NC(=O)[C@H](C)NC(=O)[C@H](CCC(N)=O)NC(=O)[C@H](CC(C)C)NC(=O)[C@H](CC(C)C)NC(=O)[C@H](CCCN=C(N)N)NC(=O)[C@H](CCC(N)=O)NC(=O)[C@H](CC(C)C)NC(=O)[C@H](CCCN=C(N)N)NC(=O)CNC(=O)[C@H](CCC(N)=O)NC(=O)[C@H](CC(C)C)NC(=O)[C@@H]1CCCN1)C(=O)N[C@@H](CC(C)C)C(=O)N[C@H](C(=O)N[C@@H](CCSC)C(=O)O)[C@@H](C)O (H-PLQGRLQRLLQASGNHAAGILTM-OH)
EC50 (Orexin receptor type 2): 0.49 µM | EC50 [1]: 8.28 µM | Ratio [2]: 16.9
